Laboratory results: article PMC12655529, “Serendipitous Hinge Modulation Hypothetically Reprograms Caerin 1.1-LC Antibacterial Mechanism and Gram-Negative Selectivity” (Pharmaceutics, 2025)
Ends that are not written are not given here.

Legend:
[1] = tested on: Enterococcus faecalis NCTC 12697; type: cell-based; settings: NCTC 12697
[2] = tested on: Escherichia coli ATCC 8739; type: cell-based; settings: ATCC 8739
Description: (§1) The antimicrobial activities of the peptides were evaluated by determining their minimal inhibitory concentration (MIC) and minimal bactericidal concentration (MBC) values following reported protocols [20]. The tested microorganisms included seven Gram-negative bacterial strains (Escherichia coli ATCC 8739, E. coli ATCC-BAA 2340, E. coli NCTC 13846, Klebsiella pneumoniae ATCC 43816, K. pneumoniae ATCC BAA-2342, Pseudomonas aeruginosa ATCC 9027, Acinetobacter baumannii ATCC BAA-747), three Gram-positive bacterial strains (Staphylococcus aureus ATCC 6538, Enterococcus faecalis NCTC 12697, MRSA NCTC 12493, and the fungal strain Candida albicans ATCC 10231. For the assay, each bacterial strain was cultured overnight at 37 °C in 100 mL of medium in a flask. The cultures were then subcultured to reach the logarithmic growth phase and diluted to 5 × 10^5 CFU/mL. Peptide samples were serially diluted two-fold in microplates, with concentrations ranging from 128 μM to 1 μM. The diluted bacterial suspensions were mixed with the peptide solutions and incubated overnight at 37 °C. The MIC values were determined by measuring the absorbance of each well using a Synergy HT plate reader (Agilent, Cheshire, UK). For MBC determination, aliquots from wells showing no visible growth were inoculated onto agar plates to assess bacterial viability. Each experiment was repeated independently three times and conducted in three independent replicates.

[3] = tested on: Acinetobacter baumannii ATCC BAA-747; type: cell-based; settings: ATCC BAA-747
MRSA NCTC 12493 = type: cell-based, Staphylococcus aureus
Description: as §1

E. coli ATCC BAA-2340 = type: cell-based, Escherichia coli
horse red blood cells = test: Haemolysis assay; type: cell-based; settings: concentration inducing 10% haemolysis of horse erythrocytes; 4% (v/v) in PBS, 2 h, 37 °C, absorbance 570 nm; no haemolysis at maximum testing concentration (128 μM) recorded as 256 μM
Description: The peptide cytotoxicity against mammalian erythrocytes was evaluated by haemolysis assay on horse red blood cells (E&O Laboratories Ltd., Falkirk, UK). Fresh horse blood was washed three times with PBS and resuspended to a final concentration of 4% (v/v) in PBS. The diluted blood suspension was then mixed with peptide solutions at varying concentrations and incubated for 2 h at 37 °C. Red blood cell suspensions treated with 0.1% Triton X-100 and PBS were used as controls. The Triton X-100-treated suspension was the positive control (for 100% haemolysis), while the PBS-treated suspension was the blank control. Following incubation, the mixtures were centrifuged at 1000× g for 10 min to separate erythrocytes from the supernatant. The absorbance of the supernatants was detected at 570 nm. The percentage haemolysis was calculated by following the equationPercentage Haemolysis = (AbsSample − AbsBlank)/(AbsPositive − AbsBlank) × 100%

[4] = tested on: K. pneumoniae ATCC BAA-2342; type: cell-based, Klebsiella pneumoniae
Description: as §1

Gram-negative bacteria = test: Geometric mean MIC and therapeutic index, Gram-negative; type: cell-based; settings: geometric mean of MICs
[5] = tested on: Klebsiella pneumoniae ATCC 43816; type: cell-based; settings: ATCC 43816
Gram-positive bacteria = test: Geometric mean MIC and therapeutic index, Gram-positive; type: cell-based; settings: geometric mean of MICs
[6] = tested on: Pseudomonas aeruginosa ATCC 9027; type: cell-based
Description: as §1

[7] = tested on: Staphylococcus aureus ATCC 6538; type: cell-based; settings: ATCC 6538
Description: as §1

E. coli NCTC 13846 = type: cell-based, Escherichia coli
E. coli (ATCC-BAA 2340) = type: cell-based, Escherichia coli; settings: ATCC-BAA 2340
Description: The peptide sensitivity was determined in different salt- and serum-containing environments. Bacterial strains were prepared following the MIC detection protocol described previously. To evaluate peptide sensitivity under physiological conditions, various concentrations of salt ions (150 mM NaCl, 4.5 mM KCl, 2 mM CaCl2, 1 mM MgCl2, 8 µM ZnCl2, 6 µM NH4Cl, or 4 µM FeCl3) and serum (10% FBS) were prepared in McCartney bottles prior to the addition of bacterial suspensions. The subcultured bacterial suspensions were then introduced to these modified media conditions. For MIC determination, the treated bacterial suspensions were diluted and dispensed into 96-well plates containing peptide solutions at graded concentrations. This assay allowed for the detection of potential alterations in MIC values, serving as an indicator of peptide sensitivity under different physiological conditions. All experiments were independently repeated three times, each with three replicates.

GLLSVLGSLKLIVPHLLPLIAEKL-NH2 [Caerin 1.1-LC PHLLP]
32 µM: MBC, E. faecalis (NCTC 12697) [1] | MIC, E. faecalis (NCTC 12697) [1] | MIC, P. aeruginosa (ATCC 9027) [6]
16 µM: MBC, K. pneumoniae (ATCC BAA-2342) [4]
8 µM: MBC, E. coli (ATCC 8739) [2] | MBC, A. baumannii (ATCC BAA-747) [3] | MIC, K. pneumoniae (ATCC BAA-2342) [4] | GM MIC Gram-Negative (Gram-negative bacteria) | MBC, K. pneumoniae (ATCC 43816) [5] | MIC, K. pneumoniae (ATCC 43816) [5]
4 µM: MIC, E. coli (ATCC 8739) [2] | MIC, A. baumannii (ATCC BAA-747) [3] | MBC, MRSA (NCTC 12493) (MRSA NCTC 12493) | MIC, MRSA (NCTC 12493) (MRSA NCTC 12493) | MBC, E. coli (ATCC BAA-2340) (E. coli ATCC BAA-2340) | MIC, E. coli (ATCC BAA-2340) (E. coli ATCC BAA-2340) | MBC, S. aureus (ATCC 6538) [7] | MIC, S. aureus (ATCC 6538) [7] | MBC, E. coli (NCTC 13846) (E. coli NCTC 13846) | MIC, E. coli (NCTC 13846) (E. coli NCTC 13846)
6.56 µM: GM MIC Gram-Positive (Gram-positive bacteria)
64 µM: MBC, P. aeruginosa (ATCC 9027) [6]
1.6 µM: HC10 (horse red blood cells)

GLLSVLGSLKKIVPKAVPKIAEKL-NH2 [Caerin 1.1-LC 11K.19K.PKAVP]
26.08 µM: GM MIC Gram-Negative (Gram-negative bacteria)
8 µM: MBC, E. coli (ATCC 8739) [2] | MIC, E. coli (ATCC 8739) [2] | MBC, E. coli (ATCC BAA-2340) (E. coli ATCC BAA-2340) | MIC, E. coli (ATCC BAA-2340) (E. coli ATCC BAA-2340)
64 µM: MBC, MRSA (NCTC 12493) (MRSA NCTC 12493) | MIC, MRSA (NCTC 12493) (MRSA NCTC 12493) | MBC, K. pneumoniae (ATCC 43816) [5] | MIC, K. pneumoniae (ATCC 43816) [5] | MBC, P. aeruginosa (ATCC 9027) [6]
128 µM: MBC, A. baumannii (ATCC BAA-747) [3] | MIC, A. baumannii (ATCC BAA-747) [3]
256 µM: HC10 (horse red blood cells)
2 µM: MBC, E. coli (NCTC 13846) (E. coli NCTC 13846) | MIC, E. coli (NCTC 13846) (E. coli NCTC 13846)
32 µM: MIC, P. aeruginosa (ATCC 9027) [6]
161.5 µM: GM MIC Gram-Positive (Gram-positive bacteria)
>128 µM: MBC, E. faecalis (NCTC 12697) [1] | MIC, E. faecalis (NCTC 12697) [1] | MBC, K. pneumoniae (ATCC BAA-2342) [4] | MIC, K. pneumoniae (ATCC BAA-2342) [4] | MBC, S. aureus (ATCC 6538) [7] | MIC, S. aureus (ATCC 6538) [7]

GLLSVLGSLKKIVPHVVPLIAKKL-NH2 [Caerin 1.1-LC 11K.22K]
64 µM: MBC, E. faecalis (NCTC 12697) [1] | MIC, E. faecalis (NCTC 12697) [1]
3.17 µM: GM MIC Gram-Positive (Gram-positive bacteria)
32 µM: MIC, Ca^2+ (E. coli (ATCC-BAA 2340))
2 µM: MBC, E. coli (ATCC 8739) [2] | MBC, E. coli (ATCC BAA-2340) (E. coli ATCC BAA-2340) | MIC, E. coli (ATCC BAA-2340) (E. coli ATCC BAA-2340)
16 µM: MBC, A. baumannii (ATCC BAA-747) [3] | MIC, FBS (E. coli (ATCC-BAA 2340)) | MIC, Mg^2+ (E. coli (ATCC-BAA 2340)) | MBC, K. pneumoniae (ATCC 43816) [5] | MBC, S. aureus (ATCC 6538) [7]
1 µM: MIC, E. coli (ATCC 8739) [2]
10.3 µM: HC10 (horse red blood cells)
8 µM: MBC, MRSA (NCTC 12493) (MRSA NCTC 12493) | MIC, Fe^3+ (E. coli (ATCC-BAA 2340)) | MIC, K^+ (E. coli (ATCC-BAA 2340)) | MIC, NH4^+ (E. coli (ATCC-BAA 2340)) | MIC, Na^+ (E. coli (ATCC-BAA 2340)) | MIC, K. pneumoniae (ATCC 43816) [5] | MBC, P. aeruginosa (ATCC 9027) [6] | MBC, E. coli (NCTC 13846) (E. coli NCTC 13846)
4 µM: MIC, A. baumannii (ATCC BAA-747) [3] | MIC, MRSA (NCTC 12493) (MRSA NCTC 12493) | MIC, Control (E. coli (ATCC-BAA 2340)) | MBC, K. pneumoniae (ATCC BAA-2342) [4] | MIC, K. pneumoniae (ATCC BAA-2342) [4] | MIC, P. aeruginosa (ATCC 9027) [6] | MIC, S. aureus (ATCC 6538) [7] | MIC, E. coli (NCTC 13846) (E. coli NCTC 13846)
